# From patent US8779156B2, “Analogues for the treatment or prevention of flavivirus infections” (Vertex Pharmaceuticals Incorporated, priority 2010, dated 2014)
# Tested on: HCV (1b) replicon, Huh-ET cells
# Test: Cell-based luciferase reporter HCV (1b) RNA replication assay
# Conditions: Hepatitis C virus, 96 h; HCV 1b replicon, luciferase, 4 days incubation; read-out: EC50_1b
# Source text: Cell-Based Luciferase Reporter HCV (Ib) RNA Replication Assay Cell Culture
# Replicon cell lines Huh-5.2 are derived from the Huh-7 hepatocarcinoma cell line are maintained in culture as generally described in Krieger, N; Lohmann, V; Bartenschlager, R. Enhancement of hepatitis C virus RNA replication by cell culture-adaptive mutations. J. Virol. 2001, 75, 4614-4624. The Huh-5.2 cells contain the highly cell culture-adapted replicon I389luc-ubi-neo/NS3-375.1 construct that carries, in addition to the neomycin gene, an integrated copy to the firefly luciferase gene (Krieger, N; Lohmann, V; Bartenschlager, R. Enhancement of hepatitis C virus RNA replication by cell culture-adaptive mutations. J. Virol. 2001, 75, 4614-4624). This cell line allows measurement of HCV RNA replication and translation by measuring luciferase activity. It has been previously shown that the luciferase activity tightly follows the replicon RNA level in these cells (Krieger, N; Lohmann, V; Bartenschlager, R. Enhancement of hepatitis C virus RNA replication by cell culture-adaptive mutations. J. Virol. 2001, 75, 4614-4624). The Huh-ET cell line has the same features as those mentioned for Huh-5.2 cell line, except that ET cells are more robust and contain an adaptative mutation in the HCV NS4B gene instead of NS5A. Both cell lines are maintained in cultures at a sub-confluent level (<85%) as the level of replicon RNA is highest in actively proliferating cells. The culture media used for cell passaging consist of DMEM (Gibco BRL Laboratories, Mississauga, ON, Canada) supplemented with 10% foetal bovine serum with 1% penicilin/streptomycin, 1% glutamine, 1% sodium pyruvate, 1% non-essential amino acids, and 180 μg/ml of G418 final concentration. Cells are incubated at 37° C., in an atmosphere of 5% CO2 and passaged twice a week to maintain sub-confluence.
# Approximately 3000 viable Huh-ET cells (100 μl) are plated per well in a white opaque 96-well microtiter plate. The cell culture media used for the assay is the same as described above except that it contains no G418 and no phenol red. After an incubation period of 3-4 hours at 37° C. in a 5% CO2 incubator, compounds (100 μl) are added at various concentrations. Cells are then further incubated for 4 days at 37° C. in a 5% CO2 incubator. Thereafter, the culture media is removed and cells are lysed by the addition of 95 μL of the luciferase buffer (luciferin substrate in buffered detergent). Cell lysates are incubated at room temperature and protected from direct light for at least 10 minutes. Plates are read for luciferase counts using a luminometer (Wallac MicroBeta Trilux, Perkin Elmer™, MA, USA).
# Curves are fitted to data points using nonlinear regression analysis, and IC50s are interpolated from the resulting curve using GraphPad Prism software, version 2.0 (GraphPad Software Inc., San Diego, Calif., USA).
row,SMILES,EC50 [nM]
1,COC(=O)N[C@H](C(=O)N1C[C@@H](C)C[C@H]1c1ncc(-c2ccc(-c3ccc(-c4ccc5[nH]c([C@@H]6C[C@H](C)CN6C(=O)[C@@H](NC(=O)OC)C(C)C)nc5c4)c(C)c3)cc2C)[nH]1)C(C)C [Compound 31],≤ 5
2,CC[C@H]1C[C@@H](c2nc(-c3ccc(-c4ccc(-c5ccc6[nH]c([C@@H]7C[C@H](CC)CN7C(=O)[C@@H](NC(=O)OC)C(C)C)nc6c5)cc4)cc3)c[nH]2)N(C(=O)[C@@H](NC(=O)OC)C(C)C)C1 [Compound 17],≤ 5
3,"COC(=O)N(C)C(C(=O)N1C[C@@H](C)C[C@H]1c1nc(-c2ccc(C#Cc3ccc4[nH]c([C@@H]5C[C@H](C)CN5C(=O)C(C(C)C)N(C)C(=O)OC)nc4c3)cc2)c[nH]1)C(C)C (stereo in doubt) [Compound 10, Methyl N-[(1S)-1-[(2S,4S)-2-[4-[4-[2-[2-[(2S,4S)-1-[(2S)-2-[methoxycarbonyl-(methyl)amino]-3-methyl-butanoyl]-4-methyl-pyrrolidin-2-yl]-1H-benzimidazol-5-yl]ethynyl]phenyl]-1H-imidazol-2-yl]-4-methyl-pyrrolidine-1-carbonyl]-2-methyl-propyl]-N-methyl-carbamate]",≤ 5
4,O=C(OCc1ccccc1)N1CCCC1c1ncc(-c2ccc(C#Cc3ccc4[nH]c(C5CCCCN5C(=O)OCc5ccccc5)nc4c3)cc2)[nH]1 (stereo not drawn) [Compound 1],5 to 5000
5,"COC(=O)N[C@H](C(=O)N1CCC[C@H]1c1nc(-c2ccc(-c3ccc4[nH]c([C@@H]5CCCN5C(=O)[C@@H](NC(=O)OC)C(C)C)nc4c3)cc2)c[nH]1)C(C)C [Compound 3, Methyl N-[(1S)-1-[(2S)-2-[4-[4-[2-[(2S)-1-[(2S)-2-(methoxycarbonylamino)-3-methyl-butanoyl]pyrrolidin-2-yl]-1H-benzimidazol-5-yl]phenyl]-1H-imidazol-2-yl]pyrrolidine-1-carbonyl]-2-methyl-propyl]carbamate]",≤ 5
6,COC(=O)N[C@H](C(=O)N[C@H](C(=O)N1C[C@@H](C)C[C@H]1c1nc2cc(-c3ccc(-c4ccc(-c5c[nH]c([C@@H]6C[C@H](C)CN6C(=O)[C@@H](NC(=O)OC)C(C)C)n5)cc4)cc3)ccc2[nH]1)C(C)C)C(C)C [Compound 56],≤ 5
7,COC(=O)N[C@H](C(=O)N1C[C@@H](C)CC1c1nc2cc(C#Cc3ccc(C#Cc4cnc([C@@H]5C[C@H](C)CN5C(=O)[C@@H](NC(=O)OC)C(C)C)[nH]4)cc3)ccc2[nH]1)C(C)C (stereo partly drawn) [Compound 29],≤ 5
8,COC(=O)N[C@H](C(=O)N1C[C@H](C)C[C@H]1c1nc(-c2ccc(-c3ccc(-c4ccc5[nH]c([C@@H]6C[C@H](C)CN6C(=O)[C@@H](NC(=O)OC)C(C)C)nc5c4)cc3)cc2)c[nH]1)C(C)C [Compound 47],≤ 5
9,COC(=O)N[C@H](C(=O)N1C[C@@H](C)C[C@H]1c1nc(-c2ccc(-c3ccc(-c4cc(C)c5[nH]c([C@@H]6C[C@H](C)CN6C(=O)[C@@H](NC(=O)OC)C(C)C)nc5c4)cc3)cc2)c[nH]1)C(C)C [Compound 28],≤ 5
10,COC(=O)N[C@H](C(=O)N1C[C@@H](C)CC1c1nc2cc(-c3ccc4nc(-c5c[nH]c([C@@H]6C[C@H](C)CN6C(=O)[C@@H](NC(=O)OC)C(C)C)n5)cn4c3)ccc2[nH]1)C(C)C (stereo partly drawn) [Compound 42],5 to 5000
11,[2H]c1c([2H])c(-c2ccc3[nH]c([C@@H]4C[C@H](C)CN4C(=O)[C@@H](NC(=O)OC)C(C)C)nc3c2)c([2H])c([2H])c1-c1ccc(-c2c[nH]c([C@@H]3C[C@H](C)CN3C(=O)[C@@H](NC(=O)OC)C(C)C)n2)cc1 [Compound 52],≤ 5
12,COC(=O)N[C@H](C(=O)N1C[C@@H](C)C[C@H]1c1nc(-c2ccc(-c3ccc(-c4ccc5[nH]c([C@@H]6C[C@H](C)CN6C(=O)[C@@H](NC(=O)OC)C(C)C)nc5c4)c4c3OCO4)cc2)c[nH]1)C(C)C [Compound 30],≤ 5
13,COC(=O)N[C@H](C(=O)N1C[C@@H](C)C[C@H]1c1nc(-c2ccc3nc(-c4ccc5[nH]c([C@@H]6C[C@H](C)CN6C(=O)[C@@H](NC(=O)OC)C(C)C)nc5c4)ccc3c2)c[nH]1)C(C)C [Compound 34],≤ 5
14,"COC(=O)N[C@H](C(=O)N1C[C@@H](C)C[C@H]1c1nc(C)c(-c2ccc(-c3ccc(-c4ccc5[nH]c([C@@H]6C[C@H](C)CN6C(=O)[C@@H](NC(=O)OC)C(C)C)nc5c4)cc3)cc2)[nH]1)C(C)C [Compound 15, Methyl N-[(1S)-1-[(2S,4S)-2-[5-[4-[4-[2-[(2S,4S)-1-[(2S)-2-(methoxycarbonylamino)-3-methyl-butanoyl]-4-methyl-pyrrolidin-2-yl]-1H-benzimidazol-5-yl]phenyl]phenyl]-4-methyl-1H-imidazol-2-yl]-4-methyl-pyrrolidine-1-carbonyl]-2-methyl-propyl]carbamate]",≤ 5
15,COC(=O)N[C@H](C(=O)N1C[C@@H](C)C[C@H]1c1nc(-c2ccc(-c3ccc4nc([C@@H]5C[C@H](C)CN5C(=O)[C@@H](NC(=O)OC)C(C)C)[nH]c4c3)cc2)c(-c2cc3sccc3s2)[nH]1)C(C)C [Compound 26],≤ 5
16,COC(=O)N[C@H](C(=O)N1C[C@@H](C)C[C@H]1c1nc(-c2cc3sc(-c4ccc5[nH]c([C@@H]6C[C@H](C)CN6C(=O)[C@@H](NC(=O)OC)C(C)C)nc5c4)cc3s2)c(C)[nH]1)C(C)C [Compound 19],≤ 5
17,COC(=O)N[C@H](C(=O)N1C[C@@H](C)C[C@H]1c1nc(-c2ccc(-c3ccc(-c4cc5nc([C@@H]6C[C@H](C)CN6C(=O)[C@@H](NC(=O)OC)C(C)C)[nH]c5cc4C)cc3)cc2)c[nH]1)C(C)C [Compound 35],≤ 5
18,"COC(=O)N[C@H](C(=O)N1C[C@@H](C)C[C@H]1c1nc(-c2ccc(C#Cc3ccc4[nH]c([C@@H]5C[C@H](C)CN5C(=O)[C@@H](NC(=O)OC)C(C)C)nc4c3)cc2)c[nH]1)C(C)C [Compound 9, Methyl N-[(1S)-1-[(2S,4S)-2-[4-[4-[2-[2-[(2S,4S)-1-[(2S)-2-(methoxycarbonylamino)-3-methyl-butanoyl]-4-methyl-pyrrolidin-2-yl]-1H-benzimidazol-5-yl]ethynyl]phenyl]-1H-imidazol-2-yl]-4-methyl-pyrrolidine-1-carbonyl]-2-methyl-propyl]carbamate]",≤ 5
19,"COC(=O)N(C)[C@H](C(=O)N1C[C@@H](C)C[C@H]1c1ncc(-c2ccc(-c3ccc(-c4ccc5[nH]c([C@@H]6C[C@H](C)CN6C(=O)[C@H](C(C)C)N(C)C(=O)OC)nc5c4)cc3)cc2)[nH]1)C(C)C [Compound 6, Methyl N-[(1S)-1-[(2S,4S)-2-[4-[4-[4-[2-[(2S,4S)-1-[(2S)-2-[methoxycarbonyl(methyl)amino]-3-methyl-butanoyl]-4-methyl-pyrrolidin-2-yl]-1H-benzimidazol-5-yl]phenyl]phenyl]-1H-imidazol-2-yl]-4-methyl-pyrrolidine-1-carbonyl]-2-methyl-propyl]-N-methyl-carbamate]",≤ 5
20,COC(=O)N[C@H](C(=O)N1C[C@@H](C)C[C@H]1c1nc(-c2ccc(-c3ccc(-c4cc(F)c5[nH]c([C@@H]6C[C@H](C)CN6C(=O)[C@@H](NC(=O)OC)C(C)C)nc5c4)cc3)cc2)c[nH]1)C(C)C [Compound 32],≤ 5
21,O=C(OCc1ccccc1)N1CCC[C@H]1c1ncc(-c2ccc(C#Cc3ccc4[nH]c([C@@H]5CCCN5C(=O)OCc5ccccc5)nc4c3)cc2)[nH]1 [Compound 2],5 to 5000
22,COC(=O)N[C@H](C(=O)N1C[C@@H](C)C[C@H]1c1nc(-c2ccc3sc(-c4ccc5[nH]c([C@@H]6C[C@H](C)CN6C(=O)[C@@H](NC(=O)OC)C(C)C)nc5c4)cc3c2)c[nH]1)C(C)C [Compound 33],≤ 5
23,"COC(=O)N[C@H](C(=O)N1C[C@@H](C)C[C@H]1c1ncc(-c2ccc(-c3ccc(-c4ccc5[nH]c([C@@H]6C[C@H](C)CN6C(=O)[C@H](C(C)C)N(C)C(=O)OC)nc5c4)cc3)cc2)[nH]1)C(C)C [Compound 7, ((S)-1-{(2S,4S)-2-[5-(4′-{2-[(2S,4S)-1-((S)-2-Methoxycarbonylamino-3-methyl-butyryl)-4-methyl-pyrrolidin-2-yl]-1H-imidazol-4-yl}-biphenyl-4-yl)-1H-benzoimidazol-2-yl]-4-methyl-pyrrolidine-1-carbonyl}-2-methyl-propyl)-methyl-carbamic acid methyl ester]",≤ 5
24,COC(=O)N[C@H](C(=O)N1C[C@@H](C)C[C@H]1c1nc(C#Cc2cc3sc(-c4ccc5[nH]c([C@@H]6C[C@H](C)CN6C(=O)[C@@H](NC(=O)OC)C(C)C)nc5c4)cc3s2)c[nH]1)C(C)C [Compound 44],≤ 5
